Results published in ChEMBL document CHEMBL4507259 (2021).

What was measured:
[1] = target: Rhodopsin kinase GRK7 (Homo sapiens) (UniProt Q8WTQ7); conditions: Compound concentration 1000.0 nM
[2] = target: Serine/threonine-protein kinase OSR1 (Homo sapiens) (UniProt O95747); conditions: Compound concentration 1000.0 nM
[3] = target: T1, Muscarinic acetylcholine receptor M5 (Homo sapiens) (UniProt P08912); assay: M5 (h) CEREP ligand profiling; conditions: filed as antagonist, Compound concentration 10.0 uM
T1 sequence (whole entry): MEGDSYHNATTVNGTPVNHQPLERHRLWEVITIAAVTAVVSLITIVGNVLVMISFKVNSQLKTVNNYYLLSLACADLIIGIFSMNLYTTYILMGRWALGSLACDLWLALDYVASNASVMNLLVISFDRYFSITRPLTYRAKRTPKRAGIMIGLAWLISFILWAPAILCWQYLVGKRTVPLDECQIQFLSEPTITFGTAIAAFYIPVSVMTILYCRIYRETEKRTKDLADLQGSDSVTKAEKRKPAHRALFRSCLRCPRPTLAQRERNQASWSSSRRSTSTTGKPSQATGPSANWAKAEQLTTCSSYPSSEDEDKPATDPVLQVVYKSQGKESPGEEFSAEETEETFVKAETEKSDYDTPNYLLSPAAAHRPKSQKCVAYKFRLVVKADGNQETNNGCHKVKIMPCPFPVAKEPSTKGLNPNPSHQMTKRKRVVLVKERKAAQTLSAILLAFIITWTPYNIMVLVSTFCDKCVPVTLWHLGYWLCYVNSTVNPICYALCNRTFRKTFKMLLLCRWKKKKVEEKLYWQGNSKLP

[4] = target: Phosphorylase b kinase gamma catalytic chain, skeletal muscle/heart isoform (Homo sapiens) (UniProt Q16816); conditions: Compound concentration 1000.0 nM
[5] = target: NT-3 growth factor receptor (Homo sapiens) (UniProt Q16288); conditions: Compound concentration 1000.0 nM
Sequence of NT-3 growth factor receptor (Homo sapiens) (Q16288 32-839 limits assumed): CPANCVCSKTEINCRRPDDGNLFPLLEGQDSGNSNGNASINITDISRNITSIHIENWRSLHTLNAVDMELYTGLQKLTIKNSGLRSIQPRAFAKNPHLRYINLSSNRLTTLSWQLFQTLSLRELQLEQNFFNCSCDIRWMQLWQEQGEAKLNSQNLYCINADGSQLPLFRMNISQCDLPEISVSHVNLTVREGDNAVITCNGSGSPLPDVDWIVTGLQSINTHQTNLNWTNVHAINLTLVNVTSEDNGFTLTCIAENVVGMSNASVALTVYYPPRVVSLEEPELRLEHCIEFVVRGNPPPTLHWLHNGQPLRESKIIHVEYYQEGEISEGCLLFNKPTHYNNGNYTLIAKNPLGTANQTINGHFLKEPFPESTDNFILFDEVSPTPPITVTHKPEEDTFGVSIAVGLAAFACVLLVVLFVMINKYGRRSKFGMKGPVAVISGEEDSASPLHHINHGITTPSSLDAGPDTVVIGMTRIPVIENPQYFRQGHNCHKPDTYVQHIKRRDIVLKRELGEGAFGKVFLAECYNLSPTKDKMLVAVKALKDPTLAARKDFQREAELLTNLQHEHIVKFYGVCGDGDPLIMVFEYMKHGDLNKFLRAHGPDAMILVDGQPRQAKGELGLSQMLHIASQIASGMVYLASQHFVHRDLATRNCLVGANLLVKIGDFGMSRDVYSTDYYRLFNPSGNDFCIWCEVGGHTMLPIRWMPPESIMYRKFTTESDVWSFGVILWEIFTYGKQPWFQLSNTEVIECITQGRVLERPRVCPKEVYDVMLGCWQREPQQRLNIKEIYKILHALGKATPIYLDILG

[6] = target: Serine/threonine-protein kinase 16 (Homo sapiens) (UniProt O75716); conditions: Compound concentration 1000.0 nM
[7] = target: Serine/threonine-protein kinase DCLK2 (Homo sapiens) (UniProt Q8N568); conditions: Compound concentration 1000.0 nM
Sequence of Serine/threonine-protein kinase DCLK2 (Homo sapiens) (Q8N568 whole entry): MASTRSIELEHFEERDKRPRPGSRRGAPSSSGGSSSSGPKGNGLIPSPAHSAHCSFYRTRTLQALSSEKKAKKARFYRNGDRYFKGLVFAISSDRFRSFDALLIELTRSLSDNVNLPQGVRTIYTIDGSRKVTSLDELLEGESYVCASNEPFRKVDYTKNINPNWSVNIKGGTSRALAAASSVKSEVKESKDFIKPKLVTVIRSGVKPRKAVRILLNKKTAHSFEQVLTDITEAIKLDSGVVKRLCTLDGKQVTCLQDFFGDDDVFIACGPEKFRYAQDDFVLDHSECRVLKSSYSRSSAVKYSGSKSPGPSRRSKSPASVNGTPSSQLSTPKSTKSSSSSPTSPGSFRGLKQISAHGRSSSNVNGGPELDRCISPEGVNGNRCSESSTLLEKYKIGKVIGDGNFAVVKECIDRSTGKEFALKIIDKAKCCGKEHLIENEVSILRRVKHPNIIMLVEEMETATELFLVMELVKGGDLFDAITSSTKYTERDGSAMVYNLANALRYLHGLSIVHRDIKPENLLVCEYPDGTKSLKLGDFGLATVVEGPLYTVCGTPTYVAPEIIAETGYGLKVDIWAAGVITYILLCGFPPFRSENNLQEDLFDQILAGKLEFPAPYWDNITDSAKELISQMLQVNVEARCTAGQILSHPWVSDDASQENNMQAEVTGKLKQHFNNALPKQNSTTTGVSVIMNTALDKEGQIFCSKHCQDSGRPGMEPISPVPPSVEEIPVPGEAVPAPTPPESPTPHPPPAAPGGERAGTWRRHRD

[8] = target: Serine/threonine-protein kinase ULK2 (Homo sapiens) (UniProt Q8IYT8); conditions: Compound concentration 1000.0 nM
[9] = target: Death-associated protein kinase 3 (Homo sapiens) (UniProt O43293); conditions: Compound concentration 1000.0 nM
[10] = target: Mitogen-activated protein kinase kinase kinase 5 (Homo sapiens) (UniProt Q99683); conditions: Compound concentration 1000.0 nM
[11] = system: Epidermal growth factor receptor (Homo sapiens), P00533 [UNDEFINED MUTATION]; conditions: Compound concentration 1000.0 nM
[12] = target: Tyrosine-protein kinase CSK (Homo sapiens) (UniProt P41240); conditions: Compound concentration 1000.0 nM
[13] = target: Beta-1 adrenergic receptor (Homo sapiens) (UniProt P08588); conditions: Compound concentration 10.0 uM
[14] = target: Beta-2 adrenergic receptor (Homo sapiens) (UniProt P07550); conditions: Compound concentration 10.0 uM
[15] = target: Myosin light chain kinase, smooth muscle (Homo sapiens) (UniProt Q15746); conditions: Compound concentration 1000.0 nM
[16] = target: Type-1 angiotensin II receptor (Homo sapiens) (UniProt P30556); assay: AT1 (h) CEREP ligand profiling; conditions: filed as antagonist, Compound concentration 10.0 uM
[17] = target: Serine/threonine-protein kinase SBK1 (Homo sapiens) (UniProt Q52WX2); conditions: Compound concentration 1000.0 nM
[18] = target: Dual specificity mitogen-activated protein kinase kinase 4 (Homo sapiens) (UniProt P45985); conditions: Compound concentration 1000.0 nM
Sequence of Dual specificity mitogen-activated protein kinase kinase 4 (Homo sapiens) (P45985 whole entry): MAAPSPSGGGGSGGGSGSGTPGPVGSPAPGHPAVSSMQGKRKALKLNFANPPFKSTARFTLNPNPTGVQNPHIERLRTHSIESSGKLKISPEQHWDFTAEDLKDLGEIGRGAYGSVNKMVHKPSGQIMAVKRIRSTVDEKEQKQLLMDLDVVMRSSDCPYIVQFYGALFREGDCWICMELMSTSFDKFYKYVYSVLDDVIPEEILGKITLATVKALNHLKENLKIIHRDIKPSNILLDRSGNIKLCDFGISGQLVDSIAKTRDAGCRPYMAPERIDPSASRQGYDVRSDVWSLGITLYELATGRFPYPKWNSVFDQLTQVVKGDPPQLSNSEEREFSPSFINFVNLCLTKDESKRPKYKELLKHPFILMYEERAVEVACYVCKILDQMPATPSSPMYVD

[19] = target: Mitogen-activated protein kinase 15 (Homo sapiens) (UniProt Q8TD08); conditions: Compound concentration 1000.0 nM
Sequence of Mitogen-activated protein kinase 15 (Homo sapiens) (Q8TD08 whole entry): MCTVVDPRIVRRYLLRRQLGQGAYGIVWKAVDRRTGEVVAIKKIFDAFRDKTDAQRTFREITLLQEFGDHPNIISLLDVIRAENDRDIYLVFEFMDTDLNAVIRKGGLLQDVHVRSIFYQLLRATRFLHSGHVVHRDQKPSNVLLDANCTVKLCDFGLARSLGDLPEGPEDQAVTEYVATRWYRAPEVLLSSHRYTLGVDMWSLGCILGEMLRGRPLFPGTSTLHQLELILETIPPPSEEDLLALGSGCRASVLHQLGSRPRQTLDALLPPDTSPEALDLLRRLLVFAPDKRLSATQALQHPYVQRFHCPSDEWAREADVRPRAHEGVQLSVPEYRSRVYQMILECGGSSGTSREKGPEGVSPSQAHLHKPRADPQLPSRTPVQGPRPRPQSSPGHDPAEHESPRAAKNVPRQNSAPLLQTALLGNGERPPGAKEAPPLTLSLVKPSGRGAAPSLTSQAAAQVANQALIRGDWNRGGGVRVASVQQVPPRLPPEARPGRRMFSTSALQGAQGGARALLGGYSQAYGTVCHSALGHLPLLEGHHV

[20] = system: Tyrosine-protein kinase ABL1 (Homo sapiens), P00519 [F317L]; conditions: Compound concentration 1000.0 nM
[21] = target: Cyclin-dependent kinase 4 (Homo sapiens) (UniProt P11802); conditions: Compound concentration 1000.0 nM
Sequence of Cyclin-dependent kinase 4 (Homo sapiens) (P11802 whole entry): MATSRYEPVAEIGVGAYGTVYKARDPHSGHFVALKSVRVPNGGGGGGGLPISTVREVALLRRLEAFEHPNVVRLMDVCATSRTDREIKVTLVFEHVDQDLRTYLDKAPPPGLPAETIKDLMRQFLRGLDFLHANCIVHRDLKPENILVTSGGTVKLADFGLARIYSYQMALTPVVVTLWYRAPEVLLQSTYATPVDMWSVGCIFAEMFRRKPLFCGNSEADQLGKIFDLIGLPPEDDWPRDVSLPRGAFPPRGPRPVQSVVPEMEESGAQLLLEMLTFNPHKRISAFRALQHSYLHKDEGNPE

[22] = target: Serine/threonine-protein kinase tousled-like 2 (Homo sapiens) (UniProt Q86UE8); conditions: Compound concentration 1000.0 nM
[23] = target: Calcium/calmodulin-dependent protein kinase type II subunit alpha (Homo sapiens) (UniProt Q9UQM7); conditions: Compound concentration 1000.0 nM
Sequence of Calcium/calmodulin-dependent protein kinase type II subunit alpha (Homo sapiens) (Q9UQM7 whole entry): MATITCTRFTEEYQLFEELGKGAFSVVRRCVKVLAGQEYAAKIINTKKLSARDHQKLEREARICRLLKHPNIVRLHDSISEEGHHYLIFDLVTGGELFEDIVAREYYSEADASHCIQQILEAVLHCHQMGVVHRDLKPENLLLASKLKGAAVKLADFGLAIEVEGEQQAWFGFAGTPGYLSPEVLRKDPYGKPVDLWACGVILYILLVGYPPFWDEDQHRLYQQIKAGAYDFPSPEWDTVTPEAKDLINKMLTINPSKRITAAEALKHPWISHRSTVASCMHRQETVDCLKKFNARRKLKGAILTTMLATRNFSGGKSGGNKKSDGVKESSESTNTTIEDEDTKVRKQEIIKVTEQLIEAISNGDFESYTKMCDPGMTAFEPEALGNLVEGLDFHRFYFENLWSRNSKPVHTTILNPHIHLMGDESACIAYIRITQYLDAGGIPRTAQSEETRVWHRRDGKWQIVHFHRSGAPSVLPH

[24] = target: Cyclin-dependent kinase 4 (Homo sapiens) (UniProt P11802); conditions: Compound concentration 1000.0 nM; remark: listed apart in the source
[25] = target: T2, Alpha-1B adrenergic receptor (Homo sapiens) (UniProt P35368); assay: alpha 1B (h) CEREP ligand profiling; conditions: filed as antagonist, Compound concentration 10.0 uM
T2 sequence (whole entry): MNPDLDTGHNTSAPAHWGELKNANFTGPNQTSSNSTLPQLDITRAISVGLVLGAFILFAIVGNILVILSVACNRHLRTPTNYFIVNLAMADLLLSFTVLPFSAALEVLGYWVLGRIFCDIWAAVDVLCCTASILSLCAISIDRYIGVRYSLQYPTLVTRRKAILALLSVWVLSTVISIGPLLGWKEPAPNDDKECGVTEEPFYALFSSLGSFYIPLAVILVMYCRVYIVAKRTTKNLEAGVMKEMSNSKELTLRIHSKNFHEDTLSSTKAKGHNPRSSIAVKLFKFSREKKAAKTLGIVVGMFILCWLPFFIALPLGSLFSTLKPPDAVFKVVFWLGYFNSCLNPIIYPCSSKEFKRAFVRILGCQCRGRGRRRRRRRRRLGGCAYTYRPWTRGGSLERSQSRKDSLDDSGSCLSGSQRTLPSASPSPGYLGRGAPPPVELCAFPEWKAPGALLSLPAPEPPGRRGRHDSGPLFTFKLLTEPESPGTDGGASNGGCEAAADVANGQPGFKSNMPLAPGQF

[26] = target: Dual specificity testis-specific protein kinase 1 (Homo sapiens) (UniProt Q15569); conditions: Compound concentration 1000.0 nM
Sequence of Dual specificity testis-specific protein kinase 1 (Homo sapiens) (Q15569 whole entry, looked up): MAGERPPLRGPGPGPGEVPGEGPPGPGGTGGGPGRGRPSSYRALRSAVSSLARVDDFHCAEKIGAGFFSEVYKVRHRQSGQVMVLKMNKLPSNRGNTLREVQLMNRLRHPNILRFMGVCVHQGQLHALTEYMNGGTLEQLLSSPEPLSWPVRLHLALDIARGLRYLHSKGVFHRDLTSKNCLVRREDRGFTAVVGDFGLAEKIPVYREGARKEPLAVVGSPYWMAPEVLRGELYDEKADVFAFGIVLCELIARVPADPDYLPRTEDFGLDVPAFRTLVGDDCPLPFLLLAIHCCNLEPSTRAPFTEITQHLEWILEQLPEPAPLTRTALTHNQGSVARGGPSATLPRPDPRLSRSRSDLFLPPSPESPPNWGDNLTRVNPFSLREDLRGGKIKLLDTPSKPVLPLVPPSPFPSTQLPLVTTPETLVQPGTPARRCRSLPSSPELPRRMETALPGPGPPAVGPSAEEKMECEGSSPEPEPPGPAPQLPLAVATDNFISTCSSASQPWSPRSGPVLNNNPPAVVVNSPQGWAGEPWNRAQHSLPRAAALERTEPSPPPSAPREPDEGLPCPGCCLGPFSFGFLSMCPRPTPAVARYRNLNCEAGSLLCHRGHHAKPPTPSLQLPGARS

[27] = target: Rhodopsin kinase GRK1 (Homo sapiens) (UniProt Q15835); conditions: Compound concentration 1000.0 nM
[28] = target: Dual specificity protein kinase CLK4 (Homo sapiens) (UniProt Q9HAZ1); conditions: Compound concentration 1000.0 nM
Sequence of Dual specificity protein kinase CLK4 (Homo sapiens) (Q9HAZ1 whole entry, looked up, the tested form may be a part): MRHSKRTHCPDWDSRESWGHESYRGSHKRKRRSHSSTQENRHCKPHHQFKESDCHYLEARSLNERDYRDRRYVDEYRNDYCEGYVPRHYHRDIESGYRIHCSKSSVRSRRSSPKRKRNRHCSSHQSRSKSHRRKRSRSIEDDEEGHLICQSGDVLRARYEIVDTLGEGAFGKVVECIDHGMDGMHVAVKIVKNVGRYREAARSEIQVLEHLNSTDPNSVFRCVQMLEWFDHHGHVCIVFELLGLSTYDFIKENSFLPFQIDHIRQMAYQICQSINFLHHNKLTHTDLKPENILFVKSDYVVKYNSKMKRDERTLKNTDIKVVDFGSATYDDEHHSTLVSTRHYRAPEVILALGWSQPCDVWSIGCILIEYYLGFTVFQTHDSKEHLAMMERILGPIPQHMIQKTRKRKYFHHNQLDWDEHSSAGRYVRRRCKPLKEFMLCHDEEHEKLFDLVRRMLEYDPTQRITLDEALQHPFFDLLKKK

[29] = target: Ankyrin repeat and protein kinase domain-containing protein 1 (Homo sapiens) (UniProt Q8NFD2); conditions: Compound concentration 1000.0 nM
[30] = target: Mitotic checkpoint serine/threonine-protein kinase BUB1 (Homo sapiens) (UniProt O43683); conditions: Compound concentration 1000.0 nM

Sequence of Rhodopsin kinase GRK7 (Homo sapiens) (Q8WTQ7 whole entry): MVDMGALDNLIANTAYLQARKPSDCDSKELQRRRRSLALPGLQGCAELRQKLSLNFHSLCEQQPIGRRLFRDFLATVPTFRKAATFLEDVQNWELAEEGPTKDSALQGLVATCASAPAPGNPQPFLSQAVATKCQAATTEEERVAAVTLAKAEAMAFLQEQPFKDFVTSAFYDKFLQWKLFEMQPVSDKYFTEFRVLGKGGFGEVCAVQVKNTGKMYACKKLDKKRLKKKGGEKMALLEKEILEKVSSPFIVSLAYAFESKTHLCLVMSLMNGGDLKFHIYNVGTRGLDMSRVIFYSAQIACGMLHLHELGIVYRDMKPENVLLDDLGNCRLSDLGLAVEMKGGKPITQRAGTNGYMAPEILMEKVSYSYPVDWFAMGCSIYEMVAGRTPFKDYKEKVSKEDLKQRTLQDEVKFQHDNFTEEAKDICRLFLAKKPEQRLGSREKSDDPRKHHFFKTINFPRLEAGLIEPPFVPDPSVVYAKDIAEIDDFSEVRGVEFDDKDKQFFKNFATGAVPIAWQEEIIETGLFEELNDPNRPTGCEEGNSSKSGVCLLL

CNC(=O)Nc1ccc2c(c1)CC[C@@]21OC(=O)N(CC(=O)N(Cc2ccc(F)cc2)[C@@H](C)C(F)(F)F)C1=O [A-485]
inactive: residual activity [1] 83% | residual activity [2] 80% | inhibition [3] 8% | residual activity [4] 100% | residual activity [5] 84% | residual activity [6] 84% | residual activity [7] 70% | residual activity [8] 82% | residual activity [9] 86% | residual activity [10] 94% | residual activity [11] 67% | residual activity [12] 100% | inhibition [13] -5.22% | inhibition [14] 19% | residual activity [15] 66% | inhibition [16] 18% | residual activity [17] 79% | residual activity [18] 100% | residual activity [19] 74% | residual activity [20] 64% | residual activity [21] 79% | residual activity [22] 100% | residual activity [23] 91% | residual activity [24] 55% | inhibition [25] 4% | residual activity [26] 73% | residual activity [27] 82% | residual activity [28] 90% | residual activity [29] 81% | residual activity [30] 66%

CNC(=O)Nc1ccc2c(c1)[C@@]1(CC2)OC(=O)N(CC(=O)N(Cc2ccc(F)cc2)[C@@H](C)C(F)(F)F)C1=O [A-486]
inactive: residual activity [1] 85% | residual activity [2] 65% | inhibition [3] -8% | residual activity [4] 100% | residual activity [5] 82% | residual activity [6] 99% | residual activity [7] 89% | residual activity [8] 100% | residual activity [9] 100% | residual activity [10] 100% | residual activity [11] 85% | residual activity [12] 100% | inhibition [13] -4.4% | inhibition [14] 24.7% | residual activity [15] 88% | inhibition [16] 17% | residual activity [17] 75% | residual activity [18] 95% | residual activity [19] 93% | residual activity [20] 66% | residual activity [21] 100% | residual activity [22] 100% | residual activity [23] 100% | residual activity [24] 73% | inhibition [25] -6% | residual activity [26] 100% | residual activity [27] 73% | residual activity [28] 78% | residual activity [29] 61% | residual activity [30] 77%
